Where no end group is shown, it is not given here. The star is where a group is joined. Biotin = O=C1N[C@H]2[C@H](CS[C@H]2CCCCC(=O)*)N1
Assays:
[1] = system: murine bone marrow-derived dendritic cells (BM-DCs); assay: Cytokine/chemokine secretion by murine bone marrow-derived dendritic cells (ELISA); format: cell-based, mouse; set-up: key to TNFα secretion / IL-18 secretion / IL-8 secretion / IL-10 secretion / IL-2 secretion / IL-1β secretion / IL-5 secretion / IL-6 secretion / IL-12 secretion: “+” indicates an increase; “−” indicates no change relative to untreated cells (medium); details: for secretion of IL-1β: FIG. 2A; for secretion of IL-2: FIG. 2C; for secretion of IL-5: FIG. 2E; for secretion of IL-12 (p70): FIGS. 2B, 2H
Experimental: Bone marrow-derived DCs (BM-DCs) were generated using modifications of the original method described by Inaba, et al. (J. Exp. Med. 1 76:1693-1702 (1992)). In brief, bone marrow suspensions were incubated with red cell lysis buffer (PUREGENE™ RBC Lysis Solution, Gentra Systems, Minneapolis, Minn.) to remove red blood cells. After washing in media, lymphocytes and Ia-positive cells were killed with a cocktail of monoclonal antibodies (mAbs) and rabbit complement for 60 min at 37° C. The mAbs that were used were GK1.5 anti-CD4, TIB211 anti-CD8, TIB 120 anti-Ia, and TIB 146 anti B220 (these mAbs were kindly provided by Dr. Ralph Steinman). The cells were subsequently cultured in media containing 5% FCS and 10 ng/ml recombinant mouse GM-CSF (R&D Systems, Minneapolis, Minn.) for 7 days. For some experiments, the cells were further purified at day 7 using CD11c^+-microbeads (Miltenyi Biotech., Auburn, Calif.), according to the manufacturer's instructions.
(§1) Recombinant HMGB1-B box domain (HMGB1-Bx) was expressed in Escherichia coli and purified as described by Li, et al. (Mol. Med. 9:37-45; J. Immunol. Methods 289:211-223 (2004)). Purified HMGB1-Bx contained trace amounts of LPS (19 pg LPS/μg HMGB1-Bx) as measured by the chromogenic Limulus amebocyte lysate assay (BioWhittacker Inc, Walkersville, Md.). All experiments using HMGB1-Bx, as well as the HMGB1 peptides, were performed in the presence of polymyxin B (200 U/ml) to neutralize the amount of contaminating LPS in the HMGB1-Bx and peptide preparations. We have previously shown that the DC stimulatory capacity of HMGB1-Bx requires an intact tertiary structure and is not due to contaminating amounts of LPS, as trypsinization abolished HMGB1-Bx activity (Messmer, et al., J. Immunol. 173: 307-313 (2004); the entire teachings of which are incorporated herein by reference).
(§2) Secreted cytokine/chemokine levels were measured by ELISA (Pierce Boston Technology Center, SearchLight™ Proteome Arrays Multiplex Sample Testing Services, Woburn, Mass.) 48 h after addition of the various peptides. Polymyxin B (200 U/ml) was added to all cultures, except those containing LPS, before the stimuli were added. Immature monocyte-derived human dendritic cells (DCs) and immature bone-marrow derived murine dendritic cells (BM-DCs) were cultured either in the presence of HMGB1 peptides (200 μg/ml), whose sequences map to different regions of the HMGB1 protein (see Table 1), the entire HMGB1 B-box domain (HMGB1-Bx) (50 μg/ml), or LPS (100 ng/ml). Untreated cells (medium) were tested as a control. Each peptide was named according to the corresponding position of its first amino acid within the full-length HMGB1 sequence. All peptides were N-terminally biotinylated except “Hp-106 (non bio)”.

[2] = system: human immature monocyte-derived dendritic cells (DCs); assay: Cytokine/chemokine secretion by human immature monocyte-derived dendritic cells (ELISA); format: cell-based; set-up: key to TNFα secretion / IL-18 secretion / IL-8 secretion / IL-10 secretion / IL-6 secretion / IL-12 secretion: “+” indicates an increase; “−” indicates no change relative to untreated cells (medium); details: for IL-6 secretion / IL-8 secretion / IL-10 secretion / IL-12 secretion / IL-18 secretion / TNFα secretion: HUMAN DC, ELISA 48 h after exposure, relative to untreated cells; for IL-6 secretion / IL-8 secretion / IL-10 secretion / IL-12 secretion / IL-18 secretion / TNFα secretion / secretion of IL-12 (p70) / secretion of TNF-α / secretion of IL-18 / secretion of IL-8 / secretion of IL-6 by DCs: peptides 200 μg/ml; for IL-6 secretion / IL-8 secretion / IL-10 secretion / IL-12 secretion / IL-18 secretion / TNFα secretion / secretion of IL-18 / secretion of IL-8: HMGB1-Bx 50 μg/ml; for cytokine secretion by human DCs / secretion of IL-12 (p70) / secretion of TNF-α / secretion of IL-18 / secretion of IL-8 / secretion of IL-6 by DCs: human DCs; for secretion of IL-12 (p70): FIG. 1C; for secretion of IL-12 (p70) / secretion of TNF-α / secretion of IL-18 / secretion of IL-8 / secretion of IL-6 by DCs: 48 h; for secretion of TNF-α: FIG. 1D; for secretion of IL-18: FIG. 1E; for secretion of IL-8: FIG. 1F; for secretion of IL-6 by DCs: FIGS. 1A, 1B
Experimental: Peripheral blood mononuclear cells (PBMCs) were isolated from the blood of normal volunteers (Long Island Blood Services, Melville, N.Y.) over a Ficoll-Hypaque (Amersham Biosciences, Uppsala, Sweden) density gradient. CD14^+ monocytes were isolated from PBMCs by positive selection using anti-CD14 beads (Miltenyi Biotech., Auburn, Calif.), following the manufacturer's instructions. To generate DCs, CD14^+ cells were cultured in RPMI 1640 medium supplemented with 2 mM L-glutamine (GIBCO-BRL Life Technologies, Grand Island, N.Y.), 50 μM 2-mercaptoethanol (Sigma, St. Louis, Mo.), 10 mM HEPES (GIBCO-BRL), penicillin (100 U/ml), streptomycin (100 μg/ml) (GIBCO-BRL), and 5% human AB serum (Gemini Bio-Products, Woodland, Calif.). Cultures were maintained for 7 days in 6-well trays (3×10^6 cells/well) supplemented with 1000 U GM-CSF per ml (Immunex, Seattle, Wash.) and 200 U IL-4 per ml (R&D Systems, Minneapolis, Minn.) at days 0, 2, 4 and 6.
as §1, §2

[3] = system: allogeneic T cells co-cultured with BM-DCs; assay: Functional maturation of BM-DCs: allogeneic T cell proliferation in mixed lymphocyte reaction (3H-thymidine); format: cell-based, mouse; details: BM-DCs from C57/BL6 mice exposed 48 h; peptide 200 μg/ml, HMGB1-Bx 50 μg/ml; DC:T cell ratio 1:120, 5 days; FIG. 4A
Experimental: Immature BM-DCs that were generated from C57/BL6 mice (FIG. 4A) or Balb/c mice (FIG. 4B) were incubated for 48 h with either HMGB1-Bx (50 μg/ml), a particular HMGB1 peptide (200 μg/ml), LPS (100 ng/ml) or were left untreated (medium). T cells were isolated by negative selection using the mouse SpinSep antibody cocktail from StemCell Technologies (Vancouver, Calif.), according to the manufacturer's instructions. The cell purity of the isolated T cells was routinely ˜99% pure. In order to assess levels of T cell activation and proliferation, cells were plated at 10^5 cells per well in a round-bottomed 96-well tray at a DC:T cell ratio of 1:120 for 5 days in the medium described above. The microcultures were pulsed with (^3H)-thymidine ([…]) for the final 8 h of culture. Cell cultures were harvested onto glass fiber filters with an automated multiple sample harvester and the amount of isotope incorporation was determined by liquid scintillation β-emission. Responses are reported as mean cpm of thymidine incorporation by triplicate cultures (±SEM).

immature BM-DCs = assay: Phenotypic maturation of murine BM-DCs: surface maturation markers by FACS; format: cell-based, mouse; details: CD11c+ gated, mean fluorescence intensity, peptide 200 μg/ml, HMGB1-Bx 50 μg/ml
Experimental: In order to determine whether HMGB1-Bx and/or particular HMGB1 peptides could induce phenotypic maturation of murine DCs, immature BM-DCs were exposed to either HMGB1-Bx, a particular HMGB1 peptide, or LPS (FIG. 3). Fluorescence activated cell sorting (FACS) analysis was performed on immature DCs that were cultured in the presence of either HMGB1-Bx (50 μg/ml), an HMGB1 peptide (200 μg/ml), or LPS (100 ng/ml). Untreated DCs (medium) were also tested as a control. DCs were gated on CD11c^+ cells and analyzed for expression of specific maturation markers (e.g., CD86, MHC-II, CD40) by surface membrane immunofluorescence. In particular, 1×10^4 DCs were reacted for at least 20 min at 4° C. in […] of PBS/5% FCS/0.1% sodium azide (staining buffer) with fluorescein isothiocyanate (FITC)-conjugated IgG monoclonal antibodies (mAbs) that are specific for CD86, CD40 or MHC-II (eBioscience). Cells were then washed 4 times with staining buffer, fixed in 10% formaldehyde in PBS (pH 7.2-7.4) and examined by flow cytometry using a FACScan (BD Biosciences). In all experiments, isotype controls were included using a FITC-conjugated irrelevant mAb of the same Ig class. Results are depicted as mean fluorescence intensity (MFI).

[4] = MURINE DC, ELISA 48 h after exposure, peptides 200 μg/ml, HMGB1-Bx 50 μg/ml, relative to untreated cells
[5] = murine BM-DCs, peptides 200 μg/ml, HMGB1-Bx 50 μg/ml, 48 h

Sequence | IL-1β secretion [1, 4] | IL-2 secretion [1, 4] | IL-5 secretion [1, 4] | IL-6 secretion [1, 4] | IL-10 secretion [1, 4] | IL-12 secretion [1, 4] | cytokine secretion by murine BM-DCs ([1]; murine BM-DCs) | secretion of IL-1β [1, 5] | secretion of IL-2 [1, 5] | secretion of IL-5 [1, 5] | secretion of IL-12 (p70) [1, 5] | IL-6 secretion [2] | IL-8 secretion [2] | IL-10 secretion [2] | IL-12 secretion [2] | IL-18 secretion [2] | TNFα secretion [2] | cytokine secretion by human DCs [2] | secretion of IL-12 (p70) [2] | secretion of IL-6 by DCs [2] | other results
HPDASVNFSEFSKKCSER (Biotin-HPDASVNFSEFSKKCSER; listed as Homo sapiens) [Hp-31] | + | + | + | − | − | + | induced cytokine secretion by murine BM-DCs | enhanced the production | enhanced the production | enhanced the production | enhanced the production | + | − | − | + | + | + | induced cytokine secretion by human DCs | induced secretion | induced secretion | secretion of IL-6 ([1]; murine BM-DCs): not; secretion of IL-10 ([1]; murine BM-DCs): not; secretion of TNF-α [2]: induced secretion; secretion of IL-18 [2]: induced secretion; secretion of IL-8 [2]: did not induce secretion
SERWKTMSAKEKGKFEDM (Biotin-SERWKTMSAKEKGKFEDM; listed as Homo sapiens) [Hp-46] |  |  |  |  |  |  |  |  |  |  |  |  |  |  |  |  |  |  |  | did not induce IL-6 secretion | proliferation of resting allogeneic T cells (3H thymidine incorporation) [3]: did not show enhanced T cell stimulatory activity
SIGDVAKKLGEMWNNTAA (Biotin-SIGDVAKKLGEMWNNTAA; listed as Homo sapiens) [Hp-121, control peptide] |  |  |  |  |  |  |  |  |  |  |  |  |  |  |  |  |  |  |  |  | proliferation of resting allogeneic T cells (3H thymidine incorporation) [3]: did not show enhanced T cell stimulatory activity; CD86 expression on the surface of BM-DCs (immature BM-DCs; FIG. 3A): No altered expression; MHC-II expression on the surface of BM-DCs (immature BM-DCs; FIG. 3B): No altered expression; CD40 expression on the surface of BM-DCs (immature BM-DCs; FIG. 3C): No altered expression
DPNAPKRPPSAFFLFCSE (Biotin-DPNAPKRPPSAFFLFCSE; listed as Homo sapiens) [Hp-91] | + | + | + | − | − | + | induced cytokine secretion by murine BM-DCs | increased production | increased production | increased production |  | + | − | − | + | + | + | induced cytokine secretion by human DCs | induced secretion | enhanced IL-6 secretion | IL-8 secretion [1, 4]: −; IL-18 secretion [1, 4]: −; TNFα secretion [1, 4]: −; secretion of IL-8 ([1]; murine BM-DCs, FIG. 2D, peptides 200 μg/ml, HMGB1-Bx 50 μg/ml, 48 h): not; secretion of IL-18 ([1]; murine BM-DCs, FIG. 2F, peptides 200 μg/ml, HMGB1-Bx 50 μg/ml, 48 h): not; secretion of TNF-α ([1]; murine BM-DCs, FIG. 2G, peptides 200 μg/ml, HMGB1-Bx 50 μg/ml, 48 h): not; secretion of TNF-α [2]: induced secretion; secretion of IL-18 [2]: induced secretion; secretion of IL-8 [2]: did not induce secretion
CSEYRPKIKGEHPGLSIG [Hp-106 (non bio), Hp-106 peptide that was not biotinylated at its N-terminus] |  |  |  |  |  |  |  |  |  |  | did not enhance IL-12 secretion |  |  |  |  |  |  |  |  | failed to stimulate IL-6 secretion | 

— US8354106B2, “Antibodies against HMGB1 and fragments thereof” (The Feinstein Institute for Medical Research, priority 2005, dated 2013)
